Measured values reported in the supplement of paper PMC10307832.

Key:
Assay in all cases: relative viability (nuclei count vs DMSO), 5 days (fraction); higher = more cells survive
COR-L 105 = test system: COR-L 105
In short: (§1)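 Cells from lung cancer lines were seeded into 1536-well plates and, one day later, dosed by pin tool. Treatments were either a single drug or a fixed dose of an anchor drug with five library-drug doses (not always all listed) in √10 steps. After 5 days, nuclei were stained in a one-step fixation (final 0.05% Triton X-100, 1% formaldehyde, 1 ug/ml Hoechst) and counted on 4× images, and relative viability is the treated-to-vehicle nuclei ratio, as the median of duplicate plates.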

HCC-78 = test system: HCC-78
In short: as §1

UMC-11 = test system: UMC-11
In short: as §1

NCI-H2405 = test system: NCI-H2405
In short: as §1

HCC-366 = test system: HCC-366
In short: as §1

NCI-H1975 = test system: NCI-H1975
In short: as §1

NCI-H1395 = test system: NCI-H1395
In short: as §1

NCI-H1437 = test system: NCI-H1437
In short: as §1

LCLC-103H = test system: LCLC-103H
In short: as §1

NCI-H358 = test system: NCI-H358
In short: as §1

EPLC-272H = test system: EPLC-272H
In short: as §1

NCI-H727 = test system: NCI-H727
In short: as §1

HCC-827 = test system: HCC-827
In short: as §1

HCC-15 = test system: HCC-15
In short: as §1

NCI-H2085 = test system: NCI-H2085
In short: as §1

NCI-H1792 = test system: NCI-H1792
In short: as §1

NCI-H661 = test system: NCI-H661
In short: as §1

NCI-H2023 = test system: NCI-H2023
In short: as §1

NCI-H1944 = test system: NCI-H1944
In short: as §1

HCC-44 = test system: HCC-44
In short: as §1

SK-LU-1 = test system: SK-LU-1
In short: as §1

COR-L23 = test system: COR-L23
In short: as §1

HARA = test system: HARA
In short: as §1

## O=c1[nH]c2ccccc2n1C1CCN(CCCC(c2ccc(F)cc2)c2ccc(F)cc2)CC1 [Pimozide] + N=C(N)NC(=N)NCCc1ccccc1 [Phenformin] (partner 250 µM)
COR-L 105; first compound 0.253 µM
  relative viability: 0.519
COR-L 105; first compound 0.8 µM
  relative viability: 0.512
COR-L 105; first compound 2.53 µM
  relative viability: 0.471
COR-L 105; first compound 8 µM
  relative viability: 0.473
HCC-78; first compound 0.08 µM
  relative viability: 0.781
HCC-78; first compound 0.8 µM
  relative viability: 0.628
HCC-78; first compound 2.53 µM
  relative viability: 0.635
HCC-78; first compound 8 µM
  relative viability: 0.678
UMC-11; first compound 0.08 µM
  relative viability: 0.331
UMC-11; first compound 0.253 µM
  relative viability: 0.333
UMC-11; first compound 0.8 µM
  relative viability: 0.344
UMC-11; first compound 2.53 µM
  relative viability: 0.313
UMC-11; first compound 8 µM
  relative viability: 0.245
NCI-H2405; first compound 0.08 µM
  relative viability: 0.412
NCI-H2405; first compound 0.253 µM
  relative viability: 0.389
NCI-H2405; first compound 0.8 µM
  relative viability: 0.478
NCI-H2405; first compound 2.53 µM
  relative viability: 0.381
NCI-H2405; first compound 8 µM
  relative viability: 0.418
HCC-366; first compound 0.08 µM
  relative viability: 0.664
HCC-366; first compound 0.253 µM
  relative viability: 0.609
HCC-366; first compound 0.8 µM
  relative viability: 0.528
HCC-366; first compound 2.53 µM
  relative viability: 0.535
HCC-366; first compound 8 µM
  relative viability: 0.469
NCI-H1975; first compound 0.08 µM
  relative viability: 0.427
NCI-H1975; first compound 0.253 µM
  relative viability: 0.395
NCI-H1975; first compound 0.8 µM
  relative viability: 0.414
NCI-H1975; first compound 2.53 µM
  relative viability: 0.454
NCI-H1975; first compound 8 µM
  relative viability: 0.391
NCI-H1395; first compound 0.08 µM
  relative viability: 0.411
NCI-H1395; first compound 0.253 µM
  relative viability: 0.405
NCI-H1395; first compound 0.8 µM
  relative viability: 0.411
NCI-H1395; first compound 2.53 µM
  relative viability: 0.42
NCI-H1395; first compound 8 µM
  relative viability: 0.403
NCI-H1437; first compound 0.08 µM
  relative viability: 0.395
NCI-H1437; first compound 0.253 µM
  relative viability: 0.318
NCI-H1437; first compound 0.8 µM
  relative viability: 0.327
NCI-H1437; first compound 2.53 µM
  relative viability: 0.275
NCI-H1437; first compound 8 µM
  relative viability: 0.25
LCLC-103H; first compound 0.08 µM
  relative viability: 0.327
LCLC-103H; first compound 0.253 µM
  relative viability: 0.324
LCLC-103H; first compound 0.8 µM
  relative viability: 0.317
LCLC-103H; first compound 2.53 µM
  relative viability: 0.332
LCLC-103H; first compound 8 µM
  relative viability: 0.364
NCI-H358; first compound 0.08 µM
  relative viability: 0.295
NCI-H358; first compound 0.253 µM
  relative viability: 0.37
NCI-H358; first compound 0.8 µM
  relative viability: 0.366
NCI-H358; first compound 2.53 µM
  relative viability: 0.313
NCI-H358; first compound 8 µM
  relative viability: 0.327
EPLC-272H; first compound 0.08 µM
  relative viability: 0.29
EPLC-272H; first compound 0.253 µM
  relative viability: 0.306
EPLC-272H; first compound 0.8 µM
  relative viability: 0.342
EPLC-272H; first compound 2.53 µM
  relative viability: 0.0767
EPLC-272H; first compound 8 µM
  relative viability: 0.253
NCI-H727; first compound 0.08 µM
  relative viability: 0.467
NCI-H727; first compound 0.253 µM
  relative viability: 0.641
NCI-H727; first compound 0.8 µM
  relative viability: 0.448
NCI-H727; first compound 2.53 µM
  relative viability: 0.684
NCI-H727; first compound 8 µM
  relative viability: 0.577
HCC-827; first compound 0.253 µM
  relative viability: 0.403
HCC-827; first compound 0.8 µM
  relative viability: 0.464
HCC-827; first compound 2.53 µM
  relative viability: 0.443
HCC-827; first compound 8 µM
  relative viability: 0.42
HCC-15; first compound 0.08 µM
  relative viability: 0.511
HCC-15; first compound 0.253 µM
  relative viability: 0.431
HCC-15; first compound 0.8 µM
  relative viability: 0.432
HCC-15; first compound 2.53 µM
  relative viability: 0.433
HCC-15; first compound 8 µM
  relative viability: 0.448
NCI-H2085; first compound 0.08 µM
  relative viability: 0.681
NCI-H2085; first compound 0.253 µM
  relative viability: 0.732
NCI-H2085; first compound 0.8 µM
  relative viability: 0.58
NCI-H2085; first compound 2.53 µM
  relative viability: 0.705
NCI-H2085; first compound 8 µM
  relative viability: 0.637
NCI-H1792; first compound 0.08 µM
  relative viability: 0.356
NCI-H1792; first compound 0.253 µM
  relative viability: 0.314
NCI-H1792; first compound 2.53 µM
  relative viability: 0.233
NCI-H1792; first compound 8 µM
  relative viability: 0.278
NCI-H661; first compound 0.08 µM
  relative viability: 0.256
NCI-H661; first compound 0.253 µM
  relative viability: 0.287
NCI-H661; first compound 0.8 µM
  relative viability: 0.257
NCI-H661; first compound 2.53 µM
  relative viability: 0.263
NCI-H661; first compound 8 µM
  relative viability: 0.257
NCI-H2023; first compound 0.08 µM
  relative viability: 0.41
NCI-H2023; first compound 0.253 µM
  relative viability: 0.403
NCI-H2023; first compound 0.8 µM
  relative viability: 0.397
NCI-H2023; first compound 2.53 µM
  relative viability: 0.385
NCI-H2023; first compound 8 µM
  relative viability: 0.354
NCI-H1944; first compound 0.08 µM
  relative viability: 0.191
NCI-H1944; first compound 0.253 µM
  relative viability: 0.197
NCI-H1944; first compound 0.8 µM
  relative viability: 0.187
NCI-H1944; first compound 2.53 µM
  relative viability: 0.184
NCI-H1944; first compound 8 µM
  relative viability: 0.198
HCC-44; first compound 0.08 µM
  relative viability: 0.253
HCC-44; first compound 0.253 µM
  relative viability: 0.206
HCC-44; first compound 0.8 µM
  relative viability: 0.138
HCC-44; first compound 2.53 µM
  relative viability: 0.142
HCC-44; first compound 8 µM
  relative viability: 0.278
SK-LU-1; first compound 0.08 µM
  relative viability: 0.559
SK-LU-1; first compound 0.253 µM
  relative viability: 0.533
SK-LU-1; first compound 0.8 µM
  relative viability: 0.558
SK-LU-1; first compound 2.53 µM
  relative viability: 0.532
SK-LU-1; first compound 8 µM
  relative viability: 0.415
COR-L23; first compound 0.08 µM
  relative viability: 0.455
COR-L23; first compound 0.253 µM
  relative viability: 0.479
COR-L23; first compound 0.8 µM
  relative viability: 0.407
COR-L23; first compound 2.53 µM
  relative viability: 0.456
COR-L23; first compound 8 µM
  relative viability: 0.49
HARA; first compound 0.253 µM
  relative viability: 0.503
HARA; first compound 0.8 µM
  relative viability: 0.405
HARA; first compound 2.53 µM
  relative viability: 0.423
HARA; first compound 8 µM
  relative viability: 0.431
